Tested on: dorsal forearm skin of healthy female Caucasian subjects with mild to moderate photo damage
Assay: In vivo biopsy, histology of treated dorsal forearm skin
Design: species or system human
Settings: 3 weeks semi-occlusion patch, 2 mg/cm^2, extract 0.33%, retinol 0.05% active
Experimental: Healthy female Caucasian subjects aged 30-65, with skin type II or III and mild to moderate photo damage, were treated on the dorsal forearm for 3 weeks (3 consecutive rounds of 5×24 hour) under semi-occlusion patches. Test articles including active ingredients, vehicle controls, and retinol were applied in a randomized allocation on 6 sites on each forearm. The application dose was 2 mg/cm^2. After 3 week treatment, a 2 mm punch biopsy was obtained from each treatment site and fixed in 10% buffered formalin. Tissue samples then embedded in paraffin, sectioned (5 μm thickness), and stained for skin markers after re-hydration. […] Retinol at a active concentration of 0.05% was used a positive control. Retinol use at a 0.05% active concentration in the semi-occlusion patch vehicle formulation yielded a visual score of approximately 0.56 out of a 4 point scale in HE staining (measuring hematoxylin and eosin staining, an indication of viable epidermal thickness and health) with 63.6% of the subjects showing an improvement; a visual score of 0.6 out of a 4 point scale in M-TC staining (Masson's trichrome staining, assessing total mature fiber-forming collagen in the dermis—mainly Collagen I, […] and Collagen V) with 51.6% of the subjects showing an improvement; a visual score of 0.52 out of a 4 point scale for pro-Col (measuring new synthesis of Collagen I by skin fibroblasts in the dermis) with 51.6% of the subjects showing an improvement; and a visual score of 0.57 out of a 4 point scale for HA (measuring level of hyaluronic acid in both dermis and epidermis) with 50% of the subjects showing an improvement.

CC1=C(/C=C/C(C)=C/C=C/C(C)=C/CO)C(C)(C)CCC1 [Retinol]
subjects showing an improvement, HA: 50% | subjects showing an improvement, HE staining: 63.6% | subjects showing an improvement, M-TC staining: 51.6% | subjects showing an improvement, pro-Col: 51.6% | visual score for HA (level of hyaluronic acid in both dermis and epidermis) (out of a 4 point scale): 0.57 | visual score for pro-Col (new synthesis of Collagen I by skin fibroblasts in the dermis) (out of a 4 point scale): 0.52 | visual score in HE staining (viable epidermal thickness and health) (out of a 4 point scale): approximately 0.56 | visual score in M-TC staining (total mature fiber-forming collagen in the dermis) (out of a 4 point scale): 0.6

Reference: patent publication US20150359731A1, “PHYLLANTHUS ACIDUS EXTRACTS AND METHODS OF USE” (AVON PRODUCTS, INC, priority 2013, published 2015)
